Tests used:
[1] = target: T1, endothelin 1A receptor (Sus scrofa, UniProt Q29010); settings: porcine saphenous vein-carotid artery interposition grafts; cited from earlier work
T1 construct: host or cells: in vivo, porcine vein grafts
T1 sequence (Q29010 21-427): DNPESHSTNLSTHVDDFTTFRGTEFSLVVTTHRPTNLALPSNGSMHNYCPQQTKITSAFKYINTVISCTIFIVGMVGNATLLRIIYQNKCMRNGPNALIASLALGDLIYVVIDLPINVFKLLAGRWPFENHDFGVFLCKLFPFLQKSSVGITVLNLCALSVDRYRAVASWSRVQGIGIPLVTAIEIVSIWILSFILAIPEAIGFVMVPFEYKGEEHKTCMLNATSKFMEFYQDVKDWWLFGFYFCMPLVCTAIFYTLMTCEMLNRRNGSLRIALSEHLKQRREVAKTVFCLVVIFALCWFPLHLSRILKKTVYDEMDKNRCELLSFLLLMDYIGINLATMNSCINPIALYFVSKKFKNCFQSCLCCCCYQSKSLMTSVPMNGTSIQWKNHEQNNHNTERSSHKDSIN

[2] = test system: healthy adult hound dogs (left circumflex coronary artery, LCx, territory); assay: Endothelin-induced myocardial perfusion defects by 82Rb PET imaging in dogs; type: in vivo, dog; settings: for severity of perfusion defect after intracoronary infusion: intracoronary into LCx for 10 min, L-NMMA 100-400 μg/kg/min in five dogs vs ET-1; for AD i.c. pre-ET: LCx 82Rb uptake as % of baseline: intracoronary adenosine before ET-1; for AD i.c. post-ET: LCx 82Rb uptake as % of baseline: intracoronary adenosine after ET-1; for AD i.v.: LCx 82Rb uptake as % of baseline: intravenous adenosine 0.142 mg/kg/min after ET-1
Method: Experimental Preparation. The experimental protocol was approved by the Animal Welfare Committee of the University of Texas Health Sciences Center at Houston. After an overnight fast, healthy adult hound dogs (n=14) of both sexes, 21-35 kg, were anesthetized with 30 mg/kg pentobarbital sodium (Nembutal) and underwent endotracheal intubation and mechanical ventilation with adequate anesthesia maintained by small supplemental doses during the experiment. Arterial blood gases were maintained within physiological range by adjusting the mechanical ventilator with supplemental oxygen, core body temperature was maintained at 37° C. with a homeothermic blanket, and stable body position was maintained throughout the duration of the imaging protocol by using a specially designed portable cradle for both coronary arteriography and PET imaging without moving the dog strapped to the portable cradle.
Arterial access was obtained via the right femoral artery by standard Seldinger technique with an arterial micropuncture kit (Cook, Bloomington, Ind.) with a 6-F arterial sheath. All animals received 100 IU/kg of initial heparin bolus, with 50 IU/kg every hour for the duration of the experiment. A 6-F standard JL3 VistaBrite coronary guide catheter (Cordis-Cardiology, Miami Lakes, Fla.) was positioned under fluoroscopic guidance into the left main coronary artery ostium.
After a stable position for the guide catheter was obtained, a 0.014-in.-diameter Hi-Torque Whisper guide wire (Guidant, Indianapolis, Ind.) was placed in the left circumflex coronary artery (LCx). Over the coronary wire, a 2.3-F, 150-cm-long, 0.042-in.-minimal diameter Rapidtransit infusion catheter (Cordis-Cardiology) was positioned in the LCx, with the tip in the midsegment of the LCx artery proximal to the takeoff of the first large obtuse marginal branch. The guide wire was removed, the guide catheter was withdrawn into the aortic root, and the small catheter was left in place in the mid-LCx.
Experimental Protocol. Contrast angiograms were obtained to document the LCx as the dominant coronary artery and the small catheter position in the mid-LCx. With contrast solution diluted 50% with normal saline, different injection rates were tested to determine the rate at which back flow occurred into the proximal segment of the coronary artery. […] Dogs were then moved into the PET scanner without changing position on the special cradle, and a repeat subselective angiogram was performed under fluoroscopy on the PET imaging table to ensure that the small intracoronary infusion catheter positioned in the mid-LCx had not changed during transportation. PET imaging was carried out with the University of Texas-designed Posicam BGO multislice tomograph HZL/mPower (Positron, Houston) as previously described (e.g., Halcox et al., Circulation 106:653-658, 2002), with a reconstructed resolution of 10-mm full-width half-maximum. Images were acquired in two-dimensional mode with extended septa to minimize scattered counts with random coincidences corrected from the singles count rate.
On the basis of a 5-min positioning transmission scan, dogs were precisely positioned in the PET scanner and laser guides aligned to external body markers were used to check correct position for every image acquisition. With a rotating rod source containing 4-5 mCi of ^68Ge, transmission images to correct for photon attenuation contained about 70-90 million counts. Emission images obtained after intravenous injection of […]-1,110 MBq (25-30 mCi) of generator-produced rubidium-82 (^82Rb) contained about 20-30 million counts. The protocol used the following imaging sequence as illustrated in FIG. 7.
Step 1. Immediately after completion of a resting perfusion image with intravenous ^82Rb, 3 mg/ml adenosine (Fujisawa Healthcare, Deerfield, Ill.) was infused subselectively into the LCx for 4 min at 2 ml/min. […]

[3] = test system: myocardial perfusion; assay: Rest-dipyridamole myocardial perfusion PET with Markovian homogeneity analysis; type: in vivo, human
From the text: Study Patients. The population for this study consists of 1,034 consecutive subjects undergoing diagnostic, rest-dipyridamole, myocardial perfusion PET at The Weatherhead PET Center For Preventing and Reversing Atherosclerosis of the University of Texas Medical School—Houston. All subjects signed informed consent approved by the Committee for the Protection of Human Subjects of the University of Texas Health Science Center. A complete medical history was obtained on all patients undergoing diagnostic cardiac PET for assessment or follow-up of known CAD, for second opinions on revascularization procedures, for prior positive stress tests, for coronary calcification by CT, for chest pain or other symptoms, for screening, or for risk factors. A history of risk factors was obtained for age, sex, diabetes, hypertension, high cholesterol, family history of vascular disease, excess weight, lack of exercise, and past or present smoking, that were counted as positive even if treated, as with hypertensive or lipid-lowering medications.
PET. Patients were instructed to fast for 4 h and abstain from caffeine, theophylline, and cigarettes for 24 h before study. PET was performed using the University of Texas designed, Positron Posicam Auricle, bismuth germanate, 2-dimensional (2D) multislice tomograph with a reconstructed resolution of 10-mm full width at half maximum. Using a rotating rod source containing 148-185 MBq (4-5 mCi) of ^68Ge, transmission images to correct for photon attenuation contained approximately 40-60 million counts. Emission images obtained after intravenous injection of 925-1,850 MBq (25-50 mCi) of generator-produced ^82Rb contained 20-50 million counts depending on the age of the generator and size of the patient. After resting ^82Rb data acquisition, dipyridamole (0.142 mg/kg/min) was infused for 4 min. At 4 min after completion of the dipyridamole infusion, the same dose of ^82Rb was given intravenously.
Automated Quantitative Analysis of PET Images. […]

[4] = intracoronary ET-1 1.5-3.5 ng/kg/min for 10 min, repeated doses in six dogs

Cc1cc(C)nc(O[C@H](C(=O)O)C(C)(c2ccccc2)c2ccccc2)n1 [BSF 302146, [+]-[S]-2-[4,6-dimethyl-pyridimin-2-yloxy]-3,3-diphenyl-butanoic acid]
inhibition of neointimal and medial thickening [1]: potent inhibitor

CC[C@H](C)[C@H](NC(=O)[C@H](CC(=O)O)NC(=O)[C@H](CC(C)C)NC(=O)[C@H](Cc1cnc[nH]1)NC(=O)[C@@H]1CSSC[C@H](N)C(=O)N[C@@H](CO)C(=O)N[C@H]2CSSC[C@H](NC(=O)[C@H](CCC(=O)O)NC(=O)[C@H](CCCCN)NC(=O)[C@H](CC(=O)O)NC(=O)[C@H](CCSC)NC(=O)[C@H](CC(C)C)NC(=O)[C@H](CO)NC(=O)[C@H](CO)NC2=O)C(=O)N[C@@H](C(C)C)C(=O)N[C@@H](Cc2ccc(O)cc2)C(=O)N[C@@H](Cc2ccccc2)C(=O)N1)C(=O)N[C@H](C(=O)N[C@@H](Cc1c[nH]c2ccccc12)C(=O)O)[C@@H](C)CC [ET-1, endothelin-1]
ΔET − Baseline (severity of ET-induced defect) ([2]; Group 1): −12.7%
ET: LCx 82Rb uptake as % of baseline ([2]; Group 1, after intracoronary ET-1, total dose 44.3 ng): 89.3%
ET: LCx 82Rb uptake as % of baseline ([2]; Group 1, after intracoronary ET-1, total dose 44.3 ng, listed as ET): 89.3 ± 7.3%
ΔET − Baseline (severity of ET-induced defect) ([2]; Group 1, listed as ET): −12.7 ± 6.7%
ΔET − Baseline (severity of ET-induced defect) ([2]; Group 2): −11.1%
ET: LCx 82Rb uptake as % of baseline ([2]; Group 2, after intracoronary ET-1, total dose 67.5 ng): 90.2%
ET: LCx 82Rb uptake as % of baseline ([2]; Group 2, after intracoronary ET-1, total dose 67.5 ng, listed as ET): 90.2 ± 8.1%
ΔET − Baseline (severity of ET-induced defect) ([2]; Group 2, listed as ET): −11.1 ± 11.9%
death because of ET-1 administration [2, 4]: no animal died
tachyarrhythmia [2, 4]: No tachyarrhythmia developed
severity of perfusion defect after intracoronary infusion [2]: −10.13%
duration of perfusion defect after intracoronary ET-1 infusion ([2]; pilot dose-finding, three dogs, in several instances): up to 5 h
time at which perfusion defect was first observed ([2]; pilot dose-finding, end of initial intracoronary ET-1 infusion): ≥ 10 min

CNC(=N)NCCC[C@H](N)C(=O)O [L-NMMA, N^G-monomethyl-L-arginine]
severity of perfusion defect after intracoronary infusion [2]: −2.48%

Nc1ncnc2c1ncn2[C@@H]1O[C@H](CO)[C@@H](O)[C@H]1O [adenosine]
ΔAD i.c − ET (percent change in LCx uptake) ([2]; Group 1): 8.7%
ΔAD i.v. − ET (change of defect after intravenous adenosine) ([2]; Group 1): +4.1%
AD i.c. pre-ET: LCx 82Rb uptake as % of baseline ([2]; Group 1 (n = 8, defect improved after i.v. adenosine)): 102%
AD i.c. pre-ET: LCx 82Rb uptake as % of baseline ([2]; Group 1 (n = 8, defect improved after i.v. adenosine), listed as AD): 102.0 ± 5.5%
AD i.c. post-ET: LCx 82Rb uptake as % of baseline ([2]; Group 1): 98.7%
AD i.c. post-ET: LCx 82Rb uptake as % of baseline ([2]; Group 1, listed as AD): 98.7 ± 5.5%
AD i.v.: LCx 82Rb uptake as % of baseline ([2]; Group 1): 93.4%
AD i.v.: LCx 82Rb uptake as % of baseline ([2]; Group 1, listed as AD): 93.4 ± 6.0%
ΔAD i.c − ET (percent change in LCx uptake) ([2]; Group 1, listed as AD): 8.7 ± 4.3%
ΔAD i.v. − ET (change of defect after intravenous adenosine) ([2]; Group 1, listed as AD): 4.1 ± 2.0%
ΔAD i.c − ET (percent change in LCx uptake) ([2]; Group 2): 10.5%
ΔAD i.v. − ET (change of defect after intravenous adenosine) ([2]; Group 2): −12.5%
AD i.c. pre-ET: LCx 82Rb uptake as % of baseline ([2]; Group 2 (n = 15, defect not improved or worse after i.v. adenosine)): 101.3%
AD i.c. pre-ET: LCx 82Rb uptake as % of baseline ([2]; Group 2 (n = 15, defect not improved or worse after i.v. adenosine), listed as AD): 101.3 ± 5.2%
AD i.c. post-ET: LCx 82Rb uptake as % of baseline ([2]; Group 2): 100.5%
AD i.c. post-ET: LCx 82Rb uptake as % of baseline ([2]; Group 2, listed as AD): 100.5 ± 4.3%
AD i.v.: LCx 82Rb uptake as % of baseline ([2]; Group 2): 77.7%
AD i.v.: LCx 82Rb uptake as % of baseline ([2]; Group 2, listed as AD): 77.7 ± 14.5%
ΔAD i.c − ET (percent change in LCx uptake) ([2]; Group 2, listed as AD): 10.5 ± 8.5%
ΔAD i.v. − ET (change of defect after intravenous adenosine) ([2]; Group 2, listed as AD): −12.5 ± 9.2%
effect of intracoronary adenosine on ET-1-induced resting perfusion defects ([2]; all experiments): normalized
effect of intravenous adenosine on vasoconstrictor effect of ET-1 ([2]; doses comparable to clinical practice, all 23 protocol sequences): only partially counteracted
visual change of ET-1-induced perfusion defect after intravenous adenosine ([2]; group 1 (n=8)): improved
visual change of ET-1-induced perfusion defect after intravenous adenosine ([2]; group 2 (n=15)): visually not improved or relatively worse

OCCN(CCO)c1nc(N2CCCCC2)c2nc(N(CCO)CCO)nc(N3CCCCC3)c2n1 [dipyridamole]
lowest mean average quadrant activity on the dipyridamole scan ([3]; patient with severe stress-induced perfusion defect): 63 % of maximum
homogeneity index by Markovian analysis after dipyridamole ([3]; patient with severe stress-induced perfusion defect, 0.34 at rest): 0.49
homogeneity index by Markovian analysis after dipyridamole ([3]; young healthy volunteer without risk factors, 0.80 at rest): 0.83
